{"source": "patent US11672802B2", "about": "“Induction of immune tolerance by using methotrexate” (Genzyme Corporation, priority 2011, dated 2023)", "key": {"anti-mATG IgG": {"test_system": "anti-mATG IgG", "test": "Anti-mATG (anti-rabbit) IgG ELISA titers in mice treated with mATG", "format": "in vivo, C57BL/6 mice", "design": "reduction of anti-mATG antibody responses, area under the effect curves / reduction of anti-mATG IgG titers, area under the effect curves / reduction of anti-mATG IgG titers: concentration or dose not given beside the values", "experimental": "The levels of anti-mATG IgG in mouse serum were analyzed by enzyme linked immunosorbent assay (ELISA). […] End-point titers were defined as the […] dilution that averages above an absorbance of 0.100 using Softmax software (Molecular Devices, Sunnyvale, Calif., USA)."}, "anti-rhGAA IgG": {"test_system": "anti-rhGAA IgG", "test": "Anti-rhGAA IgG ELISA titers in mice treated with rhGAA", "format": "in vivo", "conditions": "for anti-rhGAA titers: IL-10 knockout animals, rhGAA and methotrexate", "experimental": "Recombinant human alglucosidase alfa (rhGAA, marketed by Genzyme Corp. as Myozyme®) was used as a formulated drug product. Mice were treated weekly with 20 mg/kg of rhGAA by bolus tail vein injection unless stated differently. All mice were treated prophylactically with 5 to 30 mg/kg diphenhydramine (Baxter Healthcare Corporation, Deerfield, Ill.) intraperitoneally prior to rhGAA administration. Control animals were treated intravenously with either sterile 0.9% saline or rhGAA-formulation buffer. Methotrexate treatment\nMice were bled 4-6 days following rhGAA treatment and specific IgG was measured by ELISA. […] Endpoint titers were defined as the reciprocal of the sample dilution resulting in an absorbance value of 0.2 using Softmax software (Molecular Devices, Sunnyvale, Calif.).\nC57Bl/6 mice were treated with one 20 mg/kg intravenous dose of rhGAA (Genzyme Corporation), 3 consecutive intraperitoneal doses of 5 mg/kg methotrexate (APP Pharmaceuticals, LLC), and either 1D11 or 13C4 at 5 mg/kg (Genzyme Corporation) for 3 doses every other day. Methotrexate, 1D11, and 13C4 treatment commenced with rhGAA injections. Spleens were collected 7 days after treatment initiation and were processed as described above for B cells, culture and flow analysis. Additionally, rhGAA titer data was obtained by treating animals as described above, with rhGAA dosed weekly over 12 weeks, methotrexate dosed for either 1 or 3 cycles, and 1D11 or 13C4 dosed 3 times a week every other day for 12 weeks. Serum samples were collected every 2 weeks for ELISA analysis."}, "[1]": {"test": "Circulating mATG levels (mATG-specific IgG ELISA)", "format": "in vivo, mice", "experimental": "Mouse serum was determined by ELISA. […] Following blocking with 0.5% BSA (high purity), standard controls and serum samples were diluted as necessary and added in duplicate to the wells of the coated plates and incubated at 36-38° C. for 1 hour with gentle shaking. […] Final concentrations were interpolated off the standard curve. It was predetermined that the measurement of mATG-specific IgG by this method were only modestly affected by titers of anti-mATG IgG that were greater than 218,000."}, "[2]": {"test_system": "CD4+ and CD8+ T cells, T regulatory cells, B cells", "test": "Flow cytometry of lymphocyte populations in mATG-treated mice", "format": "in vivo, C57BL/6 mice", "experimental": "For splenocyte and lymph node cell preparations single-cell suspensions were generated from harvested mouse spleens or inguinal and mesenteric lymph nodes by homogenization between frosted glass slides into PBS containing 2% FCS. For splenocyte preparations, red blood cells were lysed by 1-2 minute incubation with a red blood cell lysis solution (BD Biosciences, San Diego, Calif.). Blood was isolated by retro-orbital bleeding and cell preparations were performed by lysing red blood cells with red blood cell lysing solution (BD Biosciences) for 20-30 minutes. For all tissue preparations, live cells were enumerated using the ViCell automated counter (Beckman Coulter, Fullerton, Calif.). Following isolation, all cell preparations were washed with PBS/2% FCS prior to use in the assays described below.\nFor evaluation of cell populations within different tissues, single cell suspensions of the tissues were incubated with fluorochrome-conjugated antibodies that included anti-mouse CD4, CD8, CD25, CD44, CD62L (all antibodies from BD Biosciences or eBioscience, San Diego, Calif.). Intracellular Foxp3 expression analysis was performed according to the anti-Foxp3 manufacturer's protocol (eBiosciences, San Diego, Calif.). Following incubation with the antibodies, cells were washed and analyzed by flow cytometry (FACSCanto, BD Biosciences and FCS Express software, De Novo Software, Los Angeles, Calif.)."}, "[3]": {"test_system": "allogeneic heart transplant", "test": "Murine allogeneic heart transplant model, graft survival", "format": "in vivo, mice (C57BL/6 donor, Balb/c recipient)", "conditions": "treatment alone", "experimental": "Polyclonal antibody mATG was administered as an intraperitoneal injection of 5 mg/kg every four weeks or as two 20 mg/kg doses given four days apart when in the transplant setting with the first dose given on the day of transplant (day 0).\nC57BL/6 and BALB/c mice were obtained from Charles River (Kingston, N.Y. or Raleigh, N.C.) and used in these experiments between 8 and 13 weeks of age. The donor allogenic C57BL/6 mice were first anesthetized with an intraperitoneal injection of Ketamine (Fort Dodge Animal Health/Pfizer, Fort Dodge, Iowa) and Xylazine (Lloyd, Shenandoah, Iowa) and a median sternotomy was performed. […] The ascending aorta and pulmonary artery were then transected, the graft removed from the donor and the heart was stored in ice-cold saline until engraftment. A recipient mouse (Balb/c) was similarly anesthetized and prepped as described above for donor mice, except that the abdominal cavity was opened. […] After hemostasis was confirmed, the abdominal muscle was closed with a running 5-O Vicryl suture (Ethicon, Johnson & Johnson, Somerville, N.J.), and the skin closed with running 5-0 Ethilon suture (Ethicon). Standard post-op pain assessment and management was performed. Grafts were assessed by palpation 5-7 times per week for the first 30 day, and then 3-4 times per week until the end of the study."}, "[4]": {"test_system": "cytokines (BAFF, TNF-alpha, MCP-1, IL-13, IL-6, IL-12)", "test": "Serum cytokine levels in alemtuzumab-treated mice", "format": "in vivo, huCD52 Tg mice"}, "anti-alemtuzumab IgG": {"test_system": "anti-alemtuzumab IgG", "test": "Anti-alemtuzumab IgG ELISA titers in huCD52 Tg mice", "excerpt": "Alemtuzumab-related studies employed human CD52 (huCD52) transgenic (Tg) mice between 6-12 weeks of age that were obtained from Charles River Laboratories/Genzyme Corp. Mice were housed and maintained in accordance with the Guide for Care and Use of Laboratory Animals and under American Association for Accreditation of Laboratory Animals Care I accreditation and all animal protocols used in these studies were approved by the Institutional Animals Care and Use Committee.\nMonoclonal antibody alemtuzumab was administered intravenously as either a single injection of 0.5 mg/kg or in either a three or five day cycle of 0.5 mg/kg/day.\nMethotrexate (Calbiochem catalog #454125) was administered at 0.5, 1.0, 2.0 or 5 mg/kg by intraperitoneal injection for 1-3 cycles, where each cycle equals either three, six or seven consecutive days of injection depending upon the experiment.\nMice were bled 4-6 days following alemtuzumab treatment and specific anti-alemtuzumab IgG was measured by ELISA. Briefly, 96-well plates (Corning Inc., Corning, N.Y., USA) were coated overnight with 3 μg/ml of alemtuzumab in PBS (pH 7.2). Following blocking with 0.1% BSA in PBS, serial dilutions of serum were added in duplicate to alemtuzumab-coated plates and incubated at 37° C. for 1 h. The plates were washed, and horseradish peroxidase-conjugated goat anti-mouse IgG secondary antibody (Southern Biotechnology Associates, Birmingham, Ala., USA) was added and allowed to incubate for 1 h at 37° C. Following a final wash, TMB substrate (BioFx, Owings Mills, Md., USA) was added and allowed to develop for 15 min at room temperature. The reaction was stopped by the addition of 1 N HCl and absorbance values were read at 450/650 nm on an ELISA plate reader (Molecular Devices, Sunnyvale, Calif., USA). End-point titers were defined as the antilog of the logarithmically transformed sample dilution interpolated at an absorbance value of 0.2 using Excel software (Microsoft, Redmond, Wash., USA)."}, "[5]": {"conditions": "methotrexate 1 mg/kg/day, three alemtuzumab treatment cycles"}}, "data": [{"smiles": "CN(Cc1cnc2nc(N)nc(N)c2n1)c1ccc(C(=O)N[C@@H](CCC(=O)O)C(=O)O)cc1", "note": "[methotrexate, Methotrexate]", "values": [{"measurement": "reduction of anti-mATG IgG titers", "setting": "anti-mATG IgG; a single course of methotrexate", "value": "> 95", "unit": "%"}, {"measurement": "anti-mATG (anti-rabbit IgG) titer lower than with mATG alone", "setting": "anti-mATG IgG; mATG and a single cycle of methotrexate vs mATG alone", "value": 100, "unit": "fold"}, {"measurement": "suppression of anti-mATG IgG responses, area under the effect curves", "setting": "anti-mATG IgG; methotrexate 5 mg/kg ip six consecutive days, mATG 25 mg/kg x2, 3 days apart, through eight weeks", "value": 95, "unit": "%"}, {"measurement": "reduction of anti-mATG IgG titers, area under the effect curves", "setting": "anti-mATG IgG; single course of methotrexate, mATG re-challenge after eight weeks rest", "value": 99, "unit": "%"}, {"measurement": "anti-mATG IgG titer", "setting": "anti-mATG IgG; single cycle of methotrexate around first of five monthly mATG treatments", "value": "approximately 50,000"}, {"measurement": "long-lived reduction in ADA", "setting": "anti-mATG IgG; single cycle of methotrexate within first week of a protein therapy, over many months of dosing (summary statement)", "value": "greater than 95%"}, {"measurement": "reduction of anti-mATG IgG titers, area under the effect curves", "setting": "anti-mATG IgG; single cycle regimen, five monthly mATG (FIG. 4C)", "value": 98, "unit": "%"}, {"measurement": "reduction of anti-mATG IgG titers, area under the effect curves", "setting": "anti-mATG IgG; three cycle regimen, five monthly mATG (FIG. 4C)", "value": 69, "unit": "%"}, {"measurement": "reduction of anti-mATG IgG titers, area under the effect curves", "setting": "anti-mATG IgG; three cycle regimen, mATG re-challenge after eight weeks rest", "value": 85, "unit": "%"}, {"measurement": "anti-mATG antibody titers", "setting": "anti-mATG IgG; three cycles of methotrexate 5 mg/kg with first three monthly mATG treatments", "value": "816,000"}, {"measurement": "reduction of anti-mATG antibody responses, area under the effect curves", "setting": "anti-mATG IgG; three cycles of methotrexate, five monthly mATG (FIG. 4A)", "value": 79, "unit": "%"}, {"measurement": "anti-rhGAA responses", "setting": "anti-rhGAA IgG; C57BL/6 wild-type, rhGAA and three cycles methotrexate, weeks 4, 6 and 9", "value": "decreased"}, {"measurement": "anti-rhGAA titers", "setting": "anti-rhGAA IgG; week 9", "value": "slight decrease"}, {"measurement": "anti-rhGAA titers", "setting": "anti-rhGAA IgG; weeks 4 and 6", "value": "not decreased"}, {"measurement": "duration of control of anti-rhGAA responses", "setting": "anti-rhGAA IgG; single cycle of three daily doses of 5 mg/kg methotrexate at week 1", "value": "at least 20 weeks"}, {"measurement": "animals exhibiting high anti-rhGAA titers", "setting": "anti-rhGAA IgG; week 6, rhGAA alone, rhGAA + methotrexate, or with 5 mg/kg 1D11 or 13C4", "value": "none"}, {"measurement": "circulating mATG levels", "setting": "[1]; heart transplant model, seven days after first mATG administration, mATG alone or with methotrexate", "value": "significantly higher"}, {"measurement": "levels of circulating mATG", "setting": "[1]; months 3 and 5 of monthly mATG, alone or with single cycle methotrexate 5 mg/kg x3", "value": "measurable levels"}, {"measurement": "levels of circulating CD4+ and CD8+ T cells", "setting": "[2]; after fifth monthly mATG treatment, mATG alone or with one cycle of methotrexate", "value": "significantly depleted"}, {"measurement": "depletion of CD4+, CD8+, T regulatory T cells and total CD19+ B cells", "setting": "[2]; methotrexate alone, animals receiving an allogeneic transplant", "value": "did not deplete"}, {"measurement": "depletion of CD4+, CD8+, T regulatory T cells and total CD19+ B cells", "setting": "[2]; normal animals, blood and spleen", "value": "does not deplete"}, {"measurement": "percentage of T regulatory cells in spleen and blood", "setting": "[2]; single cycle of methotrexate, after fifth monthly mATG treatment", "value": "enhanced the ability of mATG to increase the percentage of T regulatory cells"}, {"measurement": "absolute number of activated follicular and activated transitional 3 B cells", "setting": "[2]; spleen, single cycle of methotrexate, around fifth mATG dose", "value": "no statistically significant decreases"}, {"measurement": "average extended graft survival", "setting": "[3]", "value": 20, "unit": "days"}, {"measurement": "levels of pro-inflammatory cytokines MCP-1, IL-13, IL-6 and IL-12", "setting": "[4]; 24 hours after fifth alemtuzumab dose, methotrexate 5 mg/kg three days at first dose", "value": "decreased"}, {"measurement": "TNF-alpha levels", "setting": "[4]; methotrexate 2 mg/kg, one week after second cycle of alemtuzumab", "value": "statistically significant increase"}, {"measurement": "BAFF levels", "setting": "[4]; serum, 24 hours after 5th dose of alemtuzumab, with vs without methotrexate", "value": "no difference"}, {"measurement": "reduction of anti-alemtuzumab responses", "setting": "anti-alemtuzumab IgG; methotrexate 1 mg/kg, single three-dose cycle, five monthly alemtuzumab 0.5 mg/kg", "value": 88, "unit": "%"}, {"measurement": "mice in which titers were controlled", "setting": "anti-alemtuzumab IgG; [5]", "value": "7 of the 8"}, {"measurement": "reduction of anti-alemtuzumab titers", "setting": "anti-alemtuzumab IgG; [5]", "value": 79, "unit": "%"}, {"measurement": "reduction of ADA, area under the effect curves", "setting": "anti-alemtuzumab IgG; methotrexate 2 mg/kg/day, three alemtuzumab treatment cycles", "value": 98, "unit": "%"}, {"measurement": "reduction of anti-alemtuzumab IgG responses", "setting": "anti-alemtuzumab IgG; methotrexate 5 mg/kg, single three-dose cycle, five monthly alemtuzumab 0.5 mg/kg", "value": 99, "unit": "%"}, {"measurement": "anti-alemtuzumab antibody titers", "setting": "anti-alemtuzumab IgG; three daily doses 5 mg/kg/day methotrexate, 24 hours after fifth monthly alemtuzumab dose", "value": "reduced"}]}]}
